Assay results published in patent publication US20210330611A1, “THERAPY FOR NEUROLOGICAL DISEASES/DISORDERS” (priority 2020, published 2021).
Where a name gives a salt, the structure may show the parent alone. Read-outs that look alike come from different tables or passages of the source.

Legend:
[1] = test system: LPS-induced microglia activation; assay: Image-based assay of LPS-induced microglia activation (HTS and dose response); format: cell-based, rat; conditions: for inhibition at 10 µM: Rattus norvegicus, Microglia, read-out: LPS % inhibition
[2] = test system: fibrin- and LPS-induced microglia activation; assay: cells; format: cell-based, rat
[3] = test system: primary rat microglia; assay: Cell toxicity (dead cells, size <150 μm2) in coated fibrin (cFib) assay; conditions: for IC50: read-out: Cell Toxicity IC50 (uM) [cFib assay];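 for Fibrin % cell toxicity: share of dead cells sized under 150 µm2 at 10 µM in fibrin-stimulated microglia HTS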
[4] = test system: primary rat microglia; assay: Cell toxicity (dead cells, size <150 μm2) in LPS assay; conditions: for IC50: read-out: Cell Toxicity IC50 (uM) [LPS assay]
[5] = test system: fibrin-induced microglia activation; assay: Image-based assay of fibrin-induced microglia activation (HTS and dose response); format: cell-based, rat; conditions: for inhibition at 10 µM: Rattus norvegicus, Microglia, read-out: Fibrin % inhibition
[6] = HTS of 1907 compounds, quadrant by fibrin and LPS inhibition
[7] = quadrant by fibrin and LPS inhibition in HTS of 1907 compounds
[8] = primary microglia HTS, fibrin stimulation, decreased size (<150 μm^2) as marker of toxicity
[9] = primary microglia HTS, LPS stimulation, decreased size (<150 μm^2) as marker of toxicity
[10] = primary microglia HTS, fibrin stimulation, increased cell size (>800 μm^2) as marker of activation
[11] = primary HTS, 10 μM, LPS-stimulated primary microglia
[12] = primary HTS, 10 μM, fibrin assay, dead cells size <150 μm2
[13] = primary HTS, 10 μM, LPS assay, dead cells size <150 μm2
[14] = primary HTS, 10 μM, fibrin-stimulated primary microglia
[15] = 48 h, primary microglia HTS, LPS stimulation, increased cell size (>800 μm^2) as marker of activation
[16] = primary microglia HTS, LPS stimulation, activation = cell size >800 μm2
[17] = primary microglia HTS, fibrin stimulation, toxicity = cell size <150 μm2
[18] = primary microglia HTS, LPS stimulation, toxicity = cell size <150 μm2
[19] = primary microglia HTS, fibrin stimulation, activation = cell size >800 μm2
[20] = 48 h, primary microglia HTS, LPS stimulation, activation = cell size >800 μm2
[21] = primary microglia HTS, 10 μM, LPS-stimulated, cell size >800 μm^2 as marker of activation
[22] = primary microglia HTS, 10 μM, fibrin assay, cell size <150 μm^2 as marker of toxicity
[23] = primary microglia HTS, 10 μM, LPS assay, cell size <150 μm^2 as marker of toxicity
[24] = primary microglia HTS, 10 μM, fibrin-stimulated, cell size >800 μm^2 as marker of activation

Monensin [reference compound]
LPS_HS ([1]; Hill slope of LPS dose response, Table 7): −0.48
IC50 ([1]; LPS-induced microglia activation, dose response, read-out: LPS IC50 (uM) (Suppl. Table 7)): 0.2 µM
IC50 ([1]; Table 1, dose response 0.001-20 μM, triplicates, primary rat microglia, 48 h, read-out: LPS IC50): 0.2 µM
IC50 ([1]; Table 3, read-out: LPS IC50 (uM) (Suppl. Table 7)): 0.2 µM
IC50 ([1]; Table 6, read-out: LPS IC50 (uM) (Suppl. Table 7)): 0.2 µM
LPS specificity ([1]; Table 7): 5.4
IC50 ([1]; Table 7, read-out: LPS_IC50): 0.212 µM
IC50 ([1]; dose response, LPS-induced microglia activation, read-out: LPS IC50): 0.2 µM
LPS % inhibition ([1]; primary microglia HTS, LPS stimulation, increased cell size (>800 μm^2) as marker of activation): 117%
Hit ([2]; HTS hit classification): HIT (Hits were defined as molecules that exhibited greater than 50% inhibition of either fibrin or LPS activation)
Quadrant (FIG. 5b) [2, 6]: Q2
Quadrant (FIG. 5b) ([2]; Table 1, screen at 10 μM): Q2
Cherry-picked Hit (Suppl. Table 7) ([2]; Table 3): HIT (Hits were defined as molecules that exhibited greater than 50% inhibition of either fibrin or LPS activation)
Quadrant (FIG. 5b) ([2]; Table 3, screen at 10 μM): Q2
Activity ([2]; Table 7, fib = fibrin, LPS, tox = toxicity): fib/LPS
Cherry-picked Hit (Suppl. Table 7) ([2]; hit classification in microglia HTS): HIT (Hits were defined as molecules that exhibited greater than 50% inhibition of either fibrin or LPS activation)
Cherry-picked Hit (Suppl. Table 7) ([2]; microglia HTS, Table 6): HIT (Hits were defined as molecules that exhibited greater than 50% inhibition of either fibrin or LPS activation)
Quadrant (FIG. 5b) ([2]; microglia HTS, Table 6): Q2
Quadrant (FIG. 5b) [2, 7]: Q2
Fibrin % cell toxicity [3, 8]: 3%
IC50 ([3]; Table 3): > 20 µM
IC50 ([3]; cFib assay): > 20 µM
IC50 ([3]; cFib assay, Table 6): > 20 µM
LPS % cell toxicity [4, 9]: 6%
IC50 ([4]; LPS assay): 2 µM
IC50 ([4]; LPS assay, Table 6): 2 µM
IC50 ([4]; Table 3): 2 µM
Fibrin Selectivity [5]: 49
Fibrin Selectivity (LOG10) [5]: 1.69
fib_HS ([5]; Hill slope of fibrin dose response, Table 7): −3.80
IC50 ([5]; Table 1, dose response 0.001-20 μM, triplicates, primary rat microglia, 48 h, read-out: Fibrin IC50): 0.004 µM
IC50 ([5]; Table 3, read-out: Fibrin IC50 (uM) (Suppl. Table 7)): 0.004 µM
IC50 ([5]; Table 6, read-out: Fibrin IC50 (uM) (Suppl. Table 7)): 0.004 µM
fib specificity ([5]; Table 7): 0.2
IC50 ([5]; Table 7, read-out: fib_IC50): 1.14 µM
IC50 ([5]; dose response, fibrin-induced microglia activation, read-out: Fibrin IC50): 0.004 µM
Fibrin Selectivity (LOG10) ([5]; fibrin vs LPS, LOG10, Table 6): 1.69
Fibrin Selectivity ([5]; fibrin vs LPS, Table 6): 49
IC50 ([5]; fibrin-induced microglia activation, dose response, read-out: Fibrin IC50 (uM) (Suppl. Table 7)): 0.004 µM
Fibrin % inhibition [5, 10]: 101%

CO/N=C(\C(=O)N[C@@H]1C(=O)N2C(C(=O)O)=C(CSc3nnnn3C)CS[C@H]12)c1csc(N)n1 [Cefmenoxime Hydrochloride]
inhibition at 10 µM [1, 11]: 2%
Quadrant (FIG. 5b) ([2]; primary HTS, 10 μM): Q4
Fibrin % cell toxicity [3, 12]: 0%
LPS % cell toxicity [4, 13]: 0%
inhibition at 10 µM [5, 14]: -15%

CCCCNc1cc(C(=O)O)cc(S(N)(=O)=O)c1Oc1ccccc1 [Bumetanide]
inhibition at 10 µM [1, 11]: 18%
Quadrant (FIG. 5b) ([2]; primary HTS, 10 μM): Q4
Fibrin % cell toxicity [3, 12]: 1%
LPS % cell toxicity [4, 13]: 1%
inhibition at 10 µM [5, 14]: -3%

COc1ccccc1OCC(O)COC(N)=O (centres unmarked) [Methocarbamol]
inhibition at 10 µM [1, 15]: 10%
Quadrant (FIG. 5b) [2, 7]: Q4
Fibrin % cell toxicity [3, 8]: 0%
LPS % cell toxicity [4, 9]: 0%
inhibition at 10 µM [5, 10]: 4%

Nc1nc(=O)[nH]cc1F [Flucytosine, 5-fluorocytosine]
LPS % inhibition [1, 16]: 17%
Quadrant (FIG. 5b) [2, 7]: Q4
Fibrin % cell toxicity [3, 17]: 1%
LPS % cell toxicity [4, 18]: 1%
Fibrin % inhibition [5, 19]: 13%

COc1c2occc2c(OC)c2c(=O)cc(C)oc12 [Khellin]
inhibition at 10 µM [1, 20]: 5%
Quadrant (FIG. 5b) [2, 7]: Q4
Fibrin % cell toxicity [3, 17]: 0%
LPS % cell toxicity [4, 18]: 0%
inhibition at 10 µM [5, 19]: -16%

CC(=O)O[C@H]1C[C@@H]2CC[C@@H]3[C@H](CC[C@@]4(C)[C@H]3C[C@H]([N+]3(C)CCCCC3)[C@@H]4OC(C)=O)[C@@]2(C)C[C@@H]1N1CCCCC1 [Vecuronium Bromide]
LPS % inhibition [1, 21]: 23%
Quadrant (FIG. 5b) [2, 6]: Q4
Fibrin % cell toxicity [3, 22]: 1%
LPS % cell toxicity [4, 23]: 0%
Fibrin % inhibition [5, 24]: 7%

CO/N=C(\C(=O)N[C@@H]1C(=O)N2C(C(=O)O)=C(COC(C)=O)CS[C@H]12)c1csc(N)n1 [Cefotaxime Sodium]
LPS % inhibition [1, 11]: 3%
Quadrant (FIG. 5b) ([2]; primary HTS, 10 μM): Q4
Fibrin % cell toxicity [3, 12]: 0%
LPS % cell toxicity [4, 13]: 0%
Fibrin % inhibition [5, 14]: −1%

N[C@@H](Cc1cc(I)c(Oc2cc(I)c(O)c(I)c2)c(I)c1)C(=O)O [Thyroxine, Levothyroxine]
LPS % inhibition [1, 21]: 25%
Quadrant (FIG. 5b) [2, 6]: Q4
Fibrin % cell toxicity [3, 22]: 1%
LPS % cell toxicity [4, 23]: 1%
Fibrin % inhibition [5, 24]: 5%

CCCCCCc1ccc(O)cc1O [Hexylresorcinol]
inhibition at 10 µM [1, 20]: 18%
Quadrant (FIG. 5b) [2, 7]: Q4
Fibrin % cell toxicity [3, 17]: 1%
LPS % cell toxicity [4, 18]: 0%
inhibition at 10 µM [5, 19]: -6%

NCCC(O)(P(=O)(O)O)P(=O)(O)O [Pamidronate]
inhibition at 10 µM [1, 15]: -5%
Quadrant (FIG. 5b) [2, 7]: Q4
Fibrin % cell toxicity [3, 8]: 1%
LPS % cell toxicity [4, 9]: 0%
inhibition at 10 µM [5, 10]: 0%

CC(C)(C)NC[C@H](O)COc1cccc2c1CCCC2=O [Levobunolol]
LPS % inhibition [1, 16]: 30%
Quadrant (FIG. 5b) [2, 7]: Q4
Fibrin % cell toxicity [3, 17]: 1%
LPS % cell toxicity [4, 18]: 0%
Fibrin % inhibition [5, 19]: −28%

CCCCCCCCCCCCCCCCOP(=O)([O-])OCC[N+](C)(C)C [Miltefosine]
inhibition at 10 µM [1, 15]: 11%
Quadrant (FIG. 5b) [2, 7]: Q4
Fibrin % cell toxicity [3, 8]: 1%
LPS % cell toxicity [4, 9]: 0%
inhibition at 10 µM [5, 10]: -31%

CC(C)[N+](C)(CCC(C(N)=O)(c1ccccc1)c1ccccc1)C(C)C [Isopropamide]
inhibition at 10 µM [1, 20]: 24%
Quadrant (FIG. 5b) [2, 7]: Q4
Fibrin % cell toxicity [3, 17]: 0%
LPS % cell toxicity [4, 18]: 0%
inhibition at 10 µM [5, 19]: 19%

Oc1cc(O)c2c(c1)O[C@H](c1ccc(O)c(O)c1)[C@@H](O)C2 [Cianidanol]
inhibition at 10 µM [1, 11]: 7%
Quadrant (FIG. 5b) ([2]; primary HTS, 10 μM): Q4
Fibrin % cell toxicity [3, 12]: 0%
LPS % cell toxicity [4, 13]: 0%
inhibition at 10 µM [5, 14]: -19%

Cc1cc(C(C)(C)C)cc(C)c1CC1=NCCN1 [Xylometazoline]
inhibition at 10 µM [1, 21]: 19%
Quadrant (FIG. 5b) [2, 6]: Q4
Fibrin % cell toxicity [3, 22]: 0%
LPS % cell toxicity [4, 23]: 1%
inhibition at 10 µM [5, 24]: -5%

CCOC(=O)n1ccn(C)c1=S [Carbimazole]
inhibition at 10 µM [1, 11]: 8%
Quadrant (FIG. 5b) ([2]; primary HTS, 10 μM): Q4
Fibrin % cell toxicity [3, 12]: 0%
LPS % cell toxicity [4, 13]: 0%
inhibition at 10 µM [5, 14]: -32%

C[C@@H]1CC(=O)NN=C1c1ccc(NN=C(C#N)C#N)cc1 [Levosimendan]
inhibition at 10 µM [1, 20]: 42%
Quadrant (FIG. 5b) [2, 7]: Q4
Fibrin % cell toxicity [3, 17]: 1%
LPS % cell toxicity [4, 18]: 0%
inhibition at 10 µM [5, 19]: 46%

CO[C@H]1C[C@H](O[C@H]2[C@H](C)[C@@H](O[C@@H]3O[C@H](C)C[C@H](N(C)C)[C@H]3O)[C@@H](C)C[C@@]3(CO3)C(=O)[C@H](C)[C@@H](O)[C@@H](C)[C@@H](C)OC(=O)[C@@H]2C)O[C@@H](C)[C@@H]1O [Oleandomycin Phosphate]
inhibition at 10 µM [1, 15]: 16%
Quadrant (FIG. 5b) [2, 7]: Q4
Fibrin % cell toxicity [3, 8]: 1%
LPS % cell toxicity [4, 9]: 0%
inhibition at 10 µM [5, 10]: -9%

CN(Cc1ccc(C(C)(C)C)cc1)Cc1cccc2ccccc12 [Butenafine]
inhibition at 10 µM [1, 11]: -8%
Quadrant (FIG. 5b) ([2]; primary HTS, 10 μM): Q4
Fibrin % cell toxicity [3, 12]: 1%
LPS % cell toxicity [4, 13]: 0%
inhibition at 10 µM [5, 14]: -4%

CC(C)(C)CC(C)(C)c1cc(Cc2cc(C(C)(C)CC(C)(C)C)cc(-n3nc4ccccc4n3)c2O)c(O)c(-n2nc3ccccc3n2)c1 [Bisoctrizole]
inhibition at 10 µM [1, 11]: 20%
Quadrant (FIG. 5b) ([2]; primary HTS, 10 μM): Q4
Fibrin % cell toxicity [3, 12]: 0%
LPS % cell toxicity [4, 13]: 0%
inhibition at 10 µM [5, 14]: 33%
